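In this assay, cells in 96-well plates receive the compound at five concentrations for 48 hours. Endpoints are linearly interpolated between the surrounding concentrations. TGI: total growth inhibition.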

The values below come from PubChem BioAssay (NCI).

What all share (assay): NCI anticancer screen, dose series, 48 h
For experiment [1], the system named is ACHN renal.
The subject of experiment [2] is HS 578T breast.
The test system of experiment [3] is IGROV1 ovarian.
Experiment [4] has as its system KM12 colon.
Experiment [5] deals with MCF7 breast.
The test system of experiment [6] is MDA-MB-231 breast.
Experiment [7] deals with NCI-H226 lung.
Experiment [8] deals with OVCAR-4 ovarian.
Experiment [9] relates to PC-3 prostate.
The test system of experiment [10] is SF-295 CNS.
The test system of experiment [11] is SNB-19 CNS.
The subject of experiment [12] is SW-620 colon.
In experiment [13] the test system is HL-60(TB) leukemia.
For experiment [14], the system named is MDA-N.

As for `CSc1nc(Cl)c2c(n1)Sc1nc3cc4c(cc3n1C2O)OCCO4` (configuration not stated), the TGI was 26.8 µM in experiment [1]; 23.6 µM in experiment [2]; 18 µM in experiment [3]; > 100 µM in experiment [4]; 27.7 µM in experiment [5]; 34.3 µM in experiment [6]. Moreover, the TGI in experiment [7] turned out to be 0.889 µM; in experiment [8], 44.2 µM; in experiment [9], 65.2 µM; in experiment [10], 38.5 µM; in [11], 3.99 µM; in experiment [12], 25.2 µM.
Take `CC(CN1c2ccccc2Sc2ccccc21)N(C)C` (configuration not stated): the TGI in experiment [1] was found to be 30.7 µM; in experiment [13], 39.9 µM; in experiment [3], 34.7 µM; in [4], 37.6 µM; in experiment [5] it was 42.8 µM; in experiment [6] it was 32.4 µM. Also, the TGI in [7] amounted to 34.5 µM; in experiment [8], 32.5 µM; in [9], 31.2 µM; in experiment [10] it was 28.9 µM; in experiment [11], 33 µM; in experiment [12], 45 µM.
In the case of `CC(C)(C)c1ccc2c(c1)CNCCNCc1cc(C(C)(C)C)ccc1OCC1(CO2)COc2ccc(C(C)(C)C)cc2CNCCNCc2cc(C(C)(C)C)ccc2OC1`, the TGI was 2.98 µM in [1]; 0.475 µM in experiment [13]; 2.5 µM in experiment [3]; 0.933 µM in [4]; 0.623 µM in experiment [6]; 2.14 µM in experiment [14]. The TGI in experiment [7] is 2.26 µM; in experiment [8], 2.93 µM; in [9], 2.93 µM; in experiment [10], 1.97 µM; in [11] it was 2 µM; in experiment [12] it was 3.56 µM.
Regarding `O=c1[nH]n2c(=O)cc[nH]c2c1-c1nnns1`, the TGI in experiment [1], in [13], in [3], in [4], in [7] and in [8] was > 100 µM throughout. Moreover, the TGI in experiment [10], in experiment [11] and in [12] was > 100 µM in each case.
As to `c1ccc2c(c1)OC(N1CCCC1)c1cnc(N3CCCC3)nc1-2` (configuration not stated), the TGI in experiment [1] was > 100 µM; in experiment [13], 66.5 µM; in experiment [2], 89.7 µM; in experiment [4], > 100 µM; in [5] it was 52.9 µM; in [6] it was > 100 µM. Also, the TGI is > 100 µM in experiment [7]; > 100 µM in [8]; > 100 µM in experiment [9]; 82.1 µM in experiment [10]; > 100 µM in [11]; > 100 µM in experiment [12].
As for `Cc1ccc(-c2c(C#N)c(-c3ccccc3)n(NS(=O)(=O)c3ccccc3)c(=O)c2C#N)cc1`, the TGI in experiment [1], in experiment [3], in [4], in [5], in experiment [6] and in experiment [14] was > 100 µM throughout. Moreover, the TGI in [7], in [8], in experiment [9], in experiment [10], in experiment [11] and in experiment [12] was > 100 µM each time.
In the case of `COc1ccc(C2Oc3c(cc(O)c(OC)c3C)[C@@H]2C)cc1OC` (some centres not stated), the TGI in [1], in experiment [13], in experiment [3], in experiment [4], in [7] and in experiment [8] was > 100 µM throughout. In addition, the TGI in experiment [10], in experiment [11] and in experiment [12] was > 100 µM each time.
Consider `COC(=O)C1(C(=O)OC)CC2=C(S(=O)(=O)c3ccccc3)C[C@H](S(=O)(=O)c3ccccc3)[C@H]2C1`, for which the TGI in experiment [1] was > 100 µM; in [2], > 100 µM; in experiment [3] it was 49.9 µM; in experiment [4], > 100 µM; in experiment [6], > 100 µM; in [14], > 100 µM. Further, the TGI in experiment [7], in experiment [8], in [9], in experiment [10], in experiment [11] and in experiment [12] was > 100 µM each time.
As to `CC(C)(C)C1=C(Br)C(Br)(C(C)(C)C)OP1(=O)c1ccccc1` (configuration not stated), the TGI in experiment [1], in experiment [13], in [2], in [3], in [4] and in experiment [5] was > 100 µM each time. The TGI in experiment [14], in experiment [8], in experiment [9], in experiment [10], in experiment [11] and in experiment [12] was > 100 µM throughout.
Turning to `CN(C)CCCOc1nc2c(c(=O)n(C)c(=O)n2C)n1C` (tested in a mixture with another compound), the TGI is 68.8 µM in [1]; > 100 µM in experiment [2]; > 100 µM in [3]; > 100 µM in experiment [4]; > 100 µM in experiment [5]; 32.2 µM in experiment [6]. For the same compound, the TGI was 47.7 µM in experiment [7]; > 100 µM in experiment [8]; > 100 µM in [9]; > 100 µM in [10]; > 100 µM in experiment [11]; > 100 µM in [12].
As for `Cn1cc2ccccc2c1-c1nc(N)nc(F)n1`, the TGI in experiment [1], in [13], in [3], in experiment [4], in experiment [7] and in experiment [8] was > 100 µM throughout. In addition, the TGI in [10], in experiment [11] and in experiment [12] was > 100 µM throughout.
For `COC(=O)CC(C(C(=O)OC)C(=O)OC)N1C(=O)OCC1c1ccccc1` (configuration not stated), the TGI in [1], in experiment [13], in [3], in [4], in experiment [7] and in [8] was > 100 µM each time. Besides, the TGI in experiment [10], in experiment [11] and in experiment [12] was > 100 µM throughout.
